Source: patent publication US20240262842A1, “SMALL MOLECULE INHIBITORS OF KRAS G12C MUTANT” (Merck Sharp & Dohme LLC, priority 2021, published 2024)

Legend:
MIA PaCa-2 cells = assay: Growth inhibition activity on KRAS-G12C mutant cell line (CellTiter-Glo 3D); type: cell-based, human; conditions: Homo sapiens, MIA PaCa-2, 72 h, MIA PaCa-2, 3-day culture with compound; Table 3-1
Summary of the method: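 MIA PaCa-2 cells in RPMI1640 with 10% FBS, U-bottom wells, cultured 1 day before compound (0.2% DMSO final), then 3 days at 37 °C, 5% CO2. Viability by CellTiter-Glo 3D luminescence; growth inhibition versus untreated wells gives IC50 (nM).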

[1] = target: T1, interaction between GMPPNP-bound recombinant K-Ras4B G12C mutant protein and cRAF RAS-binding domain (cRAF-RBD) (Homo sapiens, UniProt P01116, G12C); assay: Inhibitory activity on interaction between KRAS G12C and cRAF (Alpha technology); conditions: GMPPNP-bound KRAS G12C incubated with compound 25° C. 1 hour; Table 2-1; read-out: IC50
T1 construct: His-tag (N)
Summary of the method: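 His-tagged K-Ras4B G12C (aa 1-169), GMPPNP-loaded, preincubated with compound 1 h at 25° C in pH 7.5 Tris buffer with MgCl2, TCEP, Tween 20. cRAF-RBD (aa 50-132) and Alpha reagents then added for 1.5 h; Alpha signal normalised to DMSO (0%) and GDP-bound KRAS (100%); IC50 from dose titration.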

T1 sequence (P01116 with tags, fused parts or gaps isoform P01116-2 G12C): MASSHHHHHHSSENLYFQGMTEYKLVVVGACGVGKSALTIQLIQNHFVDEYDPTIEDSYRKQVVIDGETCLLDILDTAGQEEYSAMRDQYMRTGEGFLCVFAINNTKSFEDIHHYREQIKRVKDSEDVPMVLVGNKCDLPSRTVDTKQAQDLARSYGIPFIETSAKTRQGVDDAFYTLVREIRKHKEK

| Structure (SMILES) | IC50 (MIA PaCa-2 cells) [µM] | IC50 [1] [µM] |
| --- | --- | --- |
| COc1cc2c(nc(C)n2C)c2c1-c1cccn3c(C(=O)c4cc(F)c(NC(=O)/C=C/CNC5(C)CC5)c(F)c4)cc(c13)CCO2 [Example 194] | 0.00638 | 0.0103 |
| Cn1cnc2c3c(c(C(F)(F)F)cc21)-c1cccn2c(C(=O)c4cc(F)c(NC(=O)/C=C/CN5CCC[C@@](C)(O)C5)c(F)c4)cc(c12)CCO3 [Example 195, (R,E)-N-(2,6-difluoro-4-(9-methyl-7-(trifluoro-meth-yl)-13,14-dihydro-9H-imidazo[4″,5″:5′,6′]-benzo[1′,2′:2,3]oxocino-[4,5,6-hi]indolizine-2-carbonyl)phenyl)-4-(3-hydroxy-3-methylpiper-idin-1-yl)but-2-enamide] | 0.0193 | 0.0394 |
| Cn1cnc2c3c(c(C(F)(F)F)cc21)-c1cccn2c(C(=O)c4cc(F)c(NC(=O)/C=C/CN5CCC[C@](C)(O)C5)c(F)c4)cc(c12)CCO3 [Example 196, (S,E)-N-(2,6-difluoro-4-(9-methyl-7-(trifluoro-methyl)-13,14-dihydro-9H-imidazo[4″,5″:5′,6′]-benzo[1′,2′:2,3]oxocino-[4,5,6-hi]indolizine-2-carbonyl)phenyl)-4-(3-hydroxy-3-methylpiper-idin-1-yl)but-2-enamide] | 0.0315 | 0.0351 |
| Cn1cnc2c3c(c(C(F)(F)F)cc21)-c1cccn2c(C(=O)c4cc(F)c(NC(=O)/C=C/CN5C6CCC5COC6)c(F)c4)cc(c12)CCO3 [Example 197] | 0.0109 | 0.0117 |
| Cn1cnc2c3c(c(C(F)(F)F)cc21)-c1cccn2c(C(=O)c4cc(F)c(NC(=O)/C=C/CN5CC6(COC6)C5)c(F)c4)cc(c12)CCO3 [Example 198, (E)-N-(2,6-difluoro-4-(9-methyl-7-(trifluorometh-yl)-13,14-dihydro-9H-imidazo[4″,5″:5′,6′]benzo-[1′,2′:2,3]oxocino[4,5,6-hi]indolizine-2-carbonyl)-phenyl)-4-(2-oxa-6-azaspiro[3.3]heptan-6-yl)but-2-enamide] | 0.0214 | 0.0571 |
| COc1cc(N2CCCC2=O)cc2c1-c1cccn3c(C(=O)c4cc(F)c(NC(=O)/C=C/CNC5(C)CC5)c(F)c4)cc(c13)CCO2 [Example 210] | 0.0603 | 0.0381 |
| Cn1cnc2c3c(c(C(F)(F)F)cc21)-c1cccn2c(C(=O)c4cc(F)c(NC(=O)/C=C/CN5C6COCC5C6)c(F)c4)cc(c12)CCO3 [Example 212, (E)-4-(3-oxa-6-azabicyclo-[3.1.1]heptan-6-yl)-N-(2,6-difluoro-4-(9-meth-yl-7-(trifluoromethyl)-13,14-dihydro-9H-imidazo-[4″,5″:5′,6′]benzo[1′,2′: 2,3]oxocino[4,5,6-hi]-indolizine-2-carbonyl)-phenyl)but-2-enamide] | 0.00416 | 0.0163 |
| Cn1cnc2c3c(c(C(F)(F)F)cc21)-c1cccn2c(C(=O)c4cc(F)c(NC(=O)/C=C/CN5C[C@H]6COC[C@H]6C5)c(F)c4)cc(c12)CCO3 [Example 213, (E)-N-(2,6-difluoro-4-(9-methyl-7-(trifluorometh-yl)-13,14-dihydro-9H-imidazo[4″,5″:5′,6′]benzo-[1′,2′:2,3]oxocino[4,5,6-hi]indolizine-2-carbonyl)-phenyl)-4-((3aR,6aS)-tetrahydro-1H-furo[3,4-c]pyrrol-5(3H)-yl)but-2-enamide] | 0.0253 | 0.0621 |
| Cn1cnc2c3c(c(C(F)(F)F)cc21)-c1cccn2c(C(=O)c4cc(F)c(NC(=O)/C=C/CN5C6CCCC5COC6)c(F)c4)cc(c12)CCO3 [Example 221, (E)-4-(3-oxa-9-azabicyclo-[3.3.1]nonan-9-yl)-N-(2,6-difluoro-4-(9-methyl-7-(trifluoromethyl)-13,14-dihydro-9H-imidazo[4″,5″: 5′,6′]benzo[1′,2′:2,3]oxo-cino[4,5,6-hi]indolizine-2-carbonyl)phenyl)but-2-enamide] | 0.0209 | 0.0392 |

Next, values leading:

| IC50 (MIA PaCa-2 cells) [µM] | IC50 [1] [µM] | Structure (SMILES) |
| --- | --- | --- |
| 0.0243 | 0.0915 | CC(=O)NC[C@@H]1CCN1C/C=C/C(=O)Nc1c(F)cc(C(=O)c2cc3c4c(cccn24)-c2c(C(F)(F)F)cc4c(ncn4C)c2OCC3)cc1F [Example 192, (S,E)-4-(2-(acetamido-methyl)azetidin-1-yl)-N-(2,6-difluoro-4-(9-meth-yl-7-(trifluoromethyl)-13,14-dihydro-9H-imidazo[4″,5″:5′,6′]benzo-[1′,2′:2,3]oxocino[4,5,6-hi]indolizine-2-carbonyl)-phenyl)but-2-enamide] |
| 0.0695 | 0.0396 | Cn1cnc2c3c(c(C(F)(F)F)cc21)-c1cccn2c(C(=O)c4cc(F)c(NC(=O)/C=C/CN5CCCOCC5)c(F)c4)cc(c12)CCO3 [Example 193, (E)-N-(2,6-difluoro-4-(9-methyl-7-(trifluorometh-yl)-13,14-dihydro-9H-imidazo[4″,5″:5′,6′]benzo-[1′,2′:2,3]oxocino[4,5,6-hi]indolizine-2-carbonyl)-phenyl)-4-(1,4-oxazepan-4-yl)but-2-enamide] |
| 0.0114 | 0.0354 | CN1CCc2cc(C(=O)c3cc(F)c(NC(=O)/C=C/CN4C[C@@H]5C[C@H]4CO5)c(F)c3)n3cccc(c23)-c2c(C(F)(F)F)cc3c(ncn3C)c21 [Example 208, (E)-4-((1S,4S)-2-oxa-5-azabicyclo[2.2.1]heptan-5-yl)-N-(4-(9,12-dimeth-yl-7-(trifluoromethyl)-9,12,13,14-tetrahydro-imidazo[4″,5″:5′,6′]benzo-[1′,2′:2,3]azocino[4,5,6-hi]indolizine-2-carbonyl)-2,6-difluorophenyl)but-2-enamide] |
| 0.0187 | 0.0469 | COCc1nc2c3c(c(C(F)(F)F)cc2n1C)-c1cccn2c(C(=O)c4cc(F)c(NC(=O)/C=C/CN[C@H]5CCOC5)c(F)c4)cc(c12)COC3 [Example 209, (S,E)-N-(2,6-difluoro-4-(10-(methoxymethyl)-9-methyl-7-(trifluoromethyl)-9,12-dihydro-14H-imidazo[4″,5″:3′,4′]benzo[1′,2′:6,7]oxocino[5,4,3-hi]indolizine-2-carbonyl)phenyl)-4-((tetrahydrofuran-3-yl)amino)but-2-enamide] |
| 0.0109 | 0.0519 | C[C@@H](O)[C@@H]1CCCN1C/C=C/C(=O)Nc1c(F)cc(C(=O)c2cc3c4c(cccn24)-c2c(C(F)(F)F)cc4c(ncn4C)c2N(C)CC3)cc1F [Example 211, (E)-N-(4-(9,12-dimethyl-7-(trifluoromethyl)-9,12,13,14-tetrahydro-imidazo[4″,5″:5′,6′]benzo-[1′,2′:2,3]azocino[4,5,6-hi]indolizine-2-carbonyl)-2,6-difluorophenyl)-4-((S)-2-((R)-1-hydroxy-ethyl)pyrrolidin-1-yl)but-2-enamide] |
| 0.0011 | 0.0115 | CN1CCc2cc(C(=O)c3cc(F)c(NC(=O)/C=C/CNC4(C)CC4)c(F)c3)n3cccc(c23)-c2c(C(F)(F)F)cc3c(ncn3C)c21 [Example 214, (E)-N-(4-(9.12-dimethyl-7-(trifluoromethyl)-9,12,13,14-tetrahydro-imidazo[4″,5″:5′,6′]benzo-[1′,2′:2,3]azocino[4,5,6-hi]indolizine-2-carbonyl)-2,6-difluorophenyl)-4-((1-methylcyclopropyl)amino)-but-2-enamide] |
| 0.0034 | 0.0183 | COCCn1cnc2c3c(c(C(F)(F)F)cc21)-c1cccn2c(C(=O)c4cc(F)c(NC(=O)C=CCNC5(C)CC5)c(F)c4)cc(c12)CCN3C [Example 215, (E)-N-(2,6-difluoro-4-(9-(2-methoxyethyl)-12-methyl-7-(trifluoromethyl)-9,12,13,14-tetrahydroimidazo[4″,5″:5′,6′]benzo[1′,2′:2,3]azocino[4,5,6-hi]indolizine-2-carbonyl)phenyl)-4-((1-methylcyclopropyl)amino)but-2-enamide] |
| 0.00622 | 0.0197 | Cc1nnc2c3c(c(C(F)(F)F)cn12)-c1cccn2c(C(=O)c4cc(F)c(NC(=O)/C=C/CN[C@H]5CCOC5)c(F)c4)cc(c12)CCN3C [Example 217, (S,E)-N-(4-(10,13-dimethyl-7-(trifluoromethyl)-14,15-dihydro-13H-[1,2,4]triazolo[4″,3″:1′,2′]pyrido[3′,4′:2,3]azocino[4,5,6-hi]indolizine-2-carbonyl)-2,6-difluorophenyl)-4-((tetrahydrofuran-3-yl)amino)but-2-enamide] |
| 0.0126 | 0.0385 | C[C@H](O)[C@@H]1CCCN1C/C=C/C(=O)Nc1c(F)cc(C(=O)c2cc3c4c(cccn24)-c2c(C(F)(F)F)cc4c(ncn4C)c2N(C)CC3)cc1F [Example 219, (E)-N-(4-(9,12-dimethyl-7-(trifluoromethyl)-9,12,13,14-tetrahydro-imidazo[4″,5″:5′,6′]benzo-[1′,2′:2,3]azocino[4,5,6-hi]indolizine-2-carbonyl)-2,6-difluorophenyl)-4-((S)-2-((S)-1-hydroxy-ethyl)pyrrolidin-1-yl)but-2-enamide] |
| 0.00652 | 0.0244 | Cn1cnc2c3c(c(C(F)(F)F)cc21)-c1cccn2c(C(=O)c4cc(F)c(NC(=O)/C=C/CN5CC6CCC5CO6)c(F)c4)cc(c12)CCO3 (centres unmarked) [Example 220, (E)-4-(2-oxa-5-aza-bicyclo[2.2.2]octan-5-yl)-N-(2,6-difluoro-4-(9-methyl-7-(trifluorometh-yl)-13,14-dihydro-9H-imidazo[4″,5″:5′,6′]benzo-[1′,2′:2,3]oxocino[4,5,6-hi]indolizine-2-carbonyl)-phenyl)but-2-enamide] |
